Laboratory results taken from patent publication US12678488B2, “Batch management method for improving farrowing rate or number of piglets born alive in swine” (priority 2024, dated 2026).

What was measured:
[1] = test system: Enpp2, Lpar3 and ptgs2 mRNA (LPA signalling pathway) in the uterus; experiment: Quantitative PCR of key molecules in the LPA signalling pathway in mouse uteri; assay type: in vivo; settings: mice, 10 μg/kg·BW
Experimental: 6-8-week-old ICR female mice acclimatized to the laboratory mouse house environment and in a good condition were selected and divided into a batch farrowing with FTAI model group, a batch farrowing with FTAI+low-dose model group, and a batch farrowing with FTAI+high-dose model group, and 10IU PMSG was injected at 17:00 pm. […] At 7:00-9:00 the next morning, vaginal plugs were examined, and this day was recorded as day 1 (D1) of pregnancy. In the afternoon of day 5 (D5) of pregnancy, 0.4 ml of 1% Chicago blue-normal saline solution was injected into model mice at the caudal vein, and after 3 minutes of systemic circulation, the mice were sacrificed by means of cervical dislocation, the abdominal cavity was immediately cut open, and the abdominal aorta was cut for bleeding. […] Blue dots on the uterus were recorded as embryo implantation sites, the number of implantation sites was counted, and patterns of embryo spacing in different groups were drawn.
Unfixed uteri were isolated for RNA extraction, reverse transcription and quantitative PCR detection of several key target molecules in the LPA signalling pathway, i.e., detection of Enpp2 (a gene for the expression of ATX, the key enzyme of LPA synthesis), Lpar3 (LPA receptor gene), and ptgs2 (a key gene downstream of LPAR). […]

[2] = test system: Landrace x Large White binary sows; experiment: Number of ovulated oocytes (corpora lutea) in gilts slaughtered 16 days after mating (Example 4); assay type: in vivo, pigs; settings: single low dose 12 μg/kg·BW, compared with batch farrowing with FTAI
Experimental: The breed of the gilts used in this experiment was Landrace x Large White binary sows, the gilts were randomly divided into the following 3 groups, and the treatment method for each group was as follows:
batch farrowing with FTAI: the gilts were fed with an altrenogest oral solution at 20 mg/gilt at the same time every day, for 18 days; PMSG at 1000 IU/gilt was injected intramuscularly 42 h after the last feeding with altrenogest, GnRH at 100 μg/gilt was injected intramuscularly after another 80 h, the first timed insemination was performed 24 h after the injection of GnRH, and the second timed insemination was performed after 24 h.
Treatment group 1 (batch farrowing with FTAI, with supplementing with 1-[bis(4-cyanophenyl)methyl]-1,2,4-triazole (12 μg/kg·BW, orally in a single dose): The hormone treatment and mating schemes for gilts were the same as those for gilts in the batch farrowing with FTAI. The gilts were administered orally once with 1-[bis(4-cyanophenyl)methyl]-1,2,4-triazole at 12 μg/kg·BW 8 h after the injection of PMSG.
The gilts in the batch farrowing with FTAI and the gilts in the batch farrowing with FTAI supplementing once with 1-[bis(4-cyanophenyl)methyl]-1,2,4-triazole (12 μg/kg·BW) were slaughtered. The gilts were slaughtered 16 days after mating, with 4 gilts slaughtered per group. […]

N#Cc1ccc(C(c2ccc(C#N)cc2)n2cncn2)cc1 [1-[bis(4-cyanophenyl)methyl]-1,2,4-triazole]
Enpp2, Lpar3 and ptgs2 mRNA levels in the uteri ([1]; compared with batch farrowing with FTAI model group): significantly higher | Enpp2, Lpar3 and ptgs2 mRNA levels in the uteri ([1]; compared with natural estrus group): no significant difference | number of ovulated oocytes [2]: no significant effect
